According to US12264175B2, “Compositions and methods for capping RNAS” (Verve Therapeutics, Inc., priority 2020, dated 2025):

Tests used:
T7 RNA polymerase [1] = target: T1, T7 RNA polymerase (Escherichia phage T7, UniProt P00573); experiment: One-pot IVT preparation of 5′ capped mRNA (production yield, full-length purity); assay type: biochemical
Description: The 5′ end initiator, 1007a, (FIG. 1A) was used to prepare capped mRNAs that encode for ABE and luciferase proteins. In this Example and for all others described herein, the ABE mRNA sequence was MA004 (SEQ. 0001) and the luciferase mRNA sequence was the Photinus pyralis (Firefly) luciferase sequence described in NCBI reference sequence XM_031473197.1. These mRNA can be produced by different methods well known in the art. One of such methods used herein was in vitro transcription (IVT) using T7 polymerase; or in other embodiments, additional RNA polymerase variants. This IVT reaction to produce mRNA used a linearized DNA template that comprised a T7 polymerase promoter and associated regulatory sequences, mRNA coding sequence (CDS), 3′ and 5′ untranslated regions (UTRs), poly A tail, and additional sequence elements to facilitate and modulate mRNA stability and in vivo performance. Prior to IVT, the DNA template was in the form of a plasmid; in other embodiments the DNA template is in the form of a PCR product, synthetic DNA product, or any other double-stranded DNA construct. Linearization of the DNA template with a restriction digestion enzyme was performed in order to promote run-off transcription. The typical IVT reaction included T7 polymerase, DNA template, RNase inhibitor, cap analog, inorganic pyrophosphatase, and the naturally occurring ribonucleoside triphosphates (NTPs) such as GTP, ATP, CTP, and N1-methyl pseudouridine triphosphosphate; in some embodiments NTPs include UTP or modified NTPs such as pseudouridine, 5′methyl cytidine, 5-methoxy uridine, N6-methyl adenosine, and N4-acetyl cytidine. The 1007a 5′ end initiator was added to the IVT reaction along with ATP, GTP, CTP, and N1-methyl pseudouridine triphosphate at a 1:1 initiator-to-NTP molar ratio and additional ratios described in Example 5 (B). Poly A tail was encoded in the DNA template that was added to the mRNA during transcription; in some instances, poly A tail is added to the mRNA after the IVT reaction using an RNA ligase enzyme. Finally, T7 RNA polymerase was added to the mixture and the IVT reaction was run at 37° C. for about 1-4 hours. After IVT, DNase was added to the transcription mixture to remove DNA template; in some instances, residual DNA is removed with chromatography. This mRNA was purified to remove residual reaction products and impurities, and stored in 1 mM citrate buffer. Characterization of production yield and mRNA full-length purity was performed by UV spectrometry and capillary gel electrophoresis methods, which are known in the art. […] Similar IVT and purification process are used to produce mRNA encoding SpCas9, Cas12b, CBE, and other ABEs; in all cases the DNA template, reaction conditions, and purification parameters are optimized for the specific gene of interest.
Similarly, ABE encoding mRNA with 5′ end region, 1107a, (FIG. 1B) was produced and characterized as described in the paragraph above.

T7 RNA polymerase [2] = target: T1, T7 RNA polymerase; experiment: mRNA capping efficiency at adjusted 5′ end initiator-to-NTP molar ratio; assay type: biochemical; conditions: initiator-to-NTP ratio ranging from 1:1 down to 1:1.67; FIG. 4
Description: The amount of capped mRNA produced in an IVT reaction is directly proportional to the ratio of cap to NTPs in the reaction mixture (Stepinski, J. et al., RNA. 2006, 7, 1486-1495). The 5′ end initiator-to-NTP ratio in an IVT reaction impacts the amount of mRNA that becomes capped primarily because cap can compete with NTPs for insertion at the 5′ end of mRNA. A typical initiator-to-NTP ratio for a dinucleotide cap structure is 4:1 and a typical molar initiator-to-NTP ratio for a trinucleotide cap structure is 1:1; where NTP represents either GTP, ATP, CTP, UTP, or modified NTPs such as N1-methyl pseudouridine. At both a 4:1 ratio for a dinucleotide cap and 1:1 ratio for a trinucleotide cap, the resultant mRNA will have a mixture of transcripts of which at least 80% are capped at the 5′ end and up to 20% are uncapped, this is also described as a capping efficiency of 80%. Capping efficiency is the measured amount of capped mRNA divided by the total amount of capped mRNA plus uncapped mRNA. Therefore, trinucleotide caps can be considered more efficient capping compounds than dinucleotide caps since less input cap is required to produce a final mRNA product that contains a similar amount of capped 5′ ends. The ability of trinucleotide caps to produce a high (>90%) capping efficiency at a lower initiator-to-NTP ratio than dinucleotide caps, in some instances, can be attributed to the increased affinity of a trinucleotide cap for the DNA template. In some cases, the optimal cap-to-NTP ratio may vary with the composition of the cap structure, wherein modification of cap structures may affect capping efficiency. […]
The amount of capped mRNA relative to the total amount of mRNA that is present, i.e. capping efficiency, can be measured by numerous methods well known in the art. […]

[3] = test system: primary human liver hepatocytes (hPH); experiment: ABE protein levels by ELISA after mRNA transfection of primary human hepatocytes; assay type: cell-based; conditions: ABE mRNA transfected to hPH cells, FIG. 6
Procedure: Primary human liver hepatocytes (hPH), primary cynomolgus liver hepatocytes (cPH), or primary mouse liver hepatocytes (mPH) are cultured per the manufacturer's protocol. In brief, the cells are thawed and resuspended in hepatocyte thawing medium followed by centrifugation at 100 g for 10 min at 4° C. The supernatant is discarded, and the pelleted cells resuspended in hepatocyte plating medium. Each vial contains ˜5 million cells that are used for plating one 24-well plate. Plated cells are allowed to settle and adhere for 4-6 h in a tissue culture incubator at 37° C. under 5% CO2 atmosphere. After incubation, cells are checked for monolayer formation. The incubating media is then replaced with fresh hepatocyte maintenance media The cells thus are ready for transfection using a transfection agent such as MessengerMAX. Solution A: desired amount of single guide RNA (sgRNA) is mixed with 1:1 wt ratio of mRNA in OptiMEM. Solution B: MessengerMAX in OptiMEM. After mixing solutions A and B, the mixture is incubated at room temperature for 20 minutes, and then the incubated solution is added dropwise to each well of cells. The cells are then allowed to remain at 37° C. for 3 days. […] For example, mRNA with 5′ end region motifs, 1007a and 1107a, were transfected to hPH cells as described above, the cells were lysed, and ABE protein levels were measured by ELISA. […]

T7 RNAP = T7 RNAP (Escherichia phage T7, UniProt P00573); conditions: first initiating NTP / guanosine; J. Mol. Biol. (2007) 370, 256-268; cited from earlier work
T7 RNAP, sequence (P00573 whole entry): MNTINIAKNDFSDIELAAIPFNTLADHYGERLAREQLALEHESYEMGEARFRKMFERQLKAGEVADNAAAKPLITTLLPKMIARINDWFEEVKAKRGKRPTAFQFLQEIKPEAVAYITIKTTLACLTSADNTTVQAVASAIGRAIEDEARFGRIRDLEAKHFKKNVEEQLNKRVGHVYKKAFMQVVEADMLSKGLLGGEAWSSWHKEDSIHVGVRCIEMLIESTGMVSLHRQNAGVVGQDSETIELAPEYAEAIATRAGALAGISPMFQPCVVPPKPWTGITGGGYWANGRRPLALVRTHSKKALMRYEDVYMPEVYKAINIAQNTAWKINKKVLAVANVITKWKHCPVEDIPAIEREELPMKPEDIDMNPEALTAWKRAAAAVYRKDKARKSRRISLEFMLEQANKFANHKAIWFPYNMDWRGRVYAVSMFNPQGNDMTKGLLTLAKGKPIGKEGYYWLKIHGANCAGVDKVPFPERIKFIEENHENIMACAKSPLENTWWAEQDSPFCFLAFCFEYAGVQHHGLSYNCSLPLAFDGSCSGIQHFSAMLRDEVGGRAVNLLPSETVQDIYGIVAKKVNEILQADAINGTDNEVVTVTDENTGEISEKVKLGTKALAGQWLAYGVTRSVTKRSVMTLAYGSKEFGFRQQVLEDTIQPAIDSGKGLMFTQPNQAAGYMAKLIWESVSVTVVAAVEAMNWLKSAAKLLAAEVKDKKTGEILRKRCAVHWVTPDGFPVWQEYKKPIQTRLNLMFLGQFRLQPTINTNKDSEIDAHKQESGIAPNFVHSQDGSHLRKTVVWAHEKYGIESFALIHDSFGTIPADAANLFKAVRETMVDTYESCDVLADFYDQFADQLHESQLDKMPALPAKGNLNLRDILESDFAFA

T1 sequence (P00573 whole entry): as above

Row | Compound | final production yield of mRNA (T7 RNA polymerase [1]; ABE encoding mRNA made with the 5′ end initiator, T7 IVT, FIG. 2) | mRNA full-length purity (T7 RNA polymerase [1]; ABE encoding mRNA made with the 5′ end initiator, capillary gel electrophoresis, FIG. 3) | amount of full-length mRNA produced (T7 RNA polymerase [1]; initiator-to-NTP ratio ranging from 1:1 down to 1:5, FIG. 3) | capping efficiency (T7 RNA polymerase [2]) | ABE protein levels as compared to mRNA with 5′ end region motif 1002a [3] | Kd (T7 RNAP)
1 | COC1C(OP(=O)(O)OCC2OC(n3cnc4c(=O)[nH]c(N)nc43)C(O)C2O)C(COP(=O)(O)OP(=O)([S-])OP(=O)(O)OCC2OC(n3c[n+](C)c4c(=O)[nH]c(N)nc43)C(O)C2O)OC1n1cnc2c(N)ncnc21 (stereo not drawn) [1107a, m^7G(ppsp)Am(p)G] | about 3.3 mg per 1 ml of IVT reaction | about 86% | did not reduce | > 90% | similar | 
2 | Nc1nc2c(ncn2[C@@H]2O[C@H](COP(=O)(O)OP(=O)(O)OP(=O)(O)O)[C@@H](O)[C@H]2O)c(=O)[nH]1 [GTP] |  |  |  |  |  | 2000 µM
